This passage reports EC50 results from patent publication US20110319379A1, “Substituted Indazole Amides And Their Use As Glucokinase Activators” (priority 2009, published 2011).

For the first assay, the target named is T1, recombinant human glucokinase (Homo sapiens, UniProt P35557).
T1 construct: Full-length glucokinase (beta cell isoform) was His-tagged at the N-terminus and purified by a Ni column followed by size exclusion chromatography as described above; His tag; made in house; host or cells: E. coli BL21(DE3), vector pBCGK
T1 sequence (P35557 1-465): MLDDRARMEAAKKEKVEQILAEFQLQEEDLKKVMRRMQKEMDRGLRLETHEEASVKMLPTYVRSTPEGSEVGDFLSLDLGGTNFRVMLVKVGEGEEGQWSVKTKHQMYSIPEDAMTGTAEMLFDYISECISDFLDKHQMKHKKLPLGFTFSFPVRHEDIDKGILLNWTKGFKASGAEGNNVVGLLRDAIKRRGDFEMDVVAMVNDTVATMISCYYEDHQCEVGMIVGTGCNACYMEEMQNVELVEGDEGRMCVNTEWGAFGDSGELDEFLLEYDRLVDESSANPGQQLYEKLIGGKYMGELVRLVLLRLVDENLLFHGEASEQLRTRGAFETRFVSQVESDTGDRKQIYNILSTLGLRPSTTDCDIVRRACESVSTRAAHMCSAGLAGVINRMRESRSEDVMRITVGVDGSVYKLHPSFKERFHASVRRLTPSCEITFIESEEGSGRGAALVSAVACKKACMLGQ
Description: Assay 2: Evaluating Activator Potency in a Matrix Assay at Multiple Glucose Concentrations. Format: biochemical. Conditions: Assay 2 matrix assay; 16 glucose concentrations; intrinsic EC50 = concentration affording a 50% reduction in the enzyme's Km (for glucose); read-out: Glucokinase EC50. How it is done: Representative compounds of this invention were evaluated in biochemical assays (Assay 1 or Assay 2) to characterize their glucokinase activation properties.
The recombinant human glucokinase protein utilized in both assays was prepared and purified as described below.
BL21(DE3) cells (Invitrogen Corporation, Carlsbad, Calif.) containing pBCGK (C or N H is) vector were grown at 37° C. (in 2XYT) until the OD600 was between 0.6-1.0. Expression was induced by addition of isopropylthiogalactoside to a final concentration of 0.1-0.2 mM to the cells which were then incubated overnight at 23° C. The next day, cells were harvested via centrifugation at 5000 rpm for 15 minutes at 4° C. The cell pellet was stored at −80° C. for future purification.
Beta Cell Glucokinase His-Taq Purification Conditions: A Ni-NTA (Quigan, Germantown, Md.) column (15-50 mL) was used for separation. Two buffers were prepared, 1) a lysis/nickel equilibration and wash buffer and 2) a nickel elution buffer. The lysis/equilibration/wash buffer was prepared as such: 25 mM HEPES buffer at pH 7.5, 250 mM NaCl, 20 mM imidazole, and 14 mM β-mercaptoethanol as final concentrations. The elution buffer was prepared as such: 25 mM HEPES at pH 7.5, 250 mM NaCl, 400 mM imidazole, and 14 mM β-mercaptoethanol as final concentrations. The buffers were each filtered with a 0.22 μm filter prior to use. The cell pellet (1 L culture) was resuspended in 300 mL of the lysis/equilibration buffer. The cells were then lysed (3 times) with a Microfluidics Model 110Y microfluidizer (Microfluidics Corporation, Newton, Mass.). The slurry was centrifuged with a Beckman Coulter Model LE-80K ultracentrifuge (Beckman Coulter, Fullerton, Calif.) at 40,000 rpm for 45 minutes at 4° C. The supernatant was transferred to a chilled flask. A volume of 20 μl was saved for gel analysis. A Pharmacia AKTA (GMI, Inc., Ramsey, Minn.) purification system was used for separation. The prime lines were purged with lysis/equilibration buffer. The Ni-NTA column was equilibrated with 200 mL of the lysis/equilibration buffer at a flow rate of 5 mL/minute. The supernantant was loaded over the column at 4 mL/minute and the flow-through was collected in a flask. The unbound proteins were washed with lysis/equilibration buffer at a flow rate of 5 mL/minute until the ultraviolet reaches baseline. The protein was then eluted from the column with the imidazole elution buffer via imidazole gradient 20 mM to 400 mM over 320 mL. The column was then stripped of any additional protein with 80 mL of the elution buffer. The elution fractions were each 8 mL, for a total yield of 50 samples. Fractions were analyzed by sodium dodecyl sulfate polyacrylamide (SDS-PAGE) and the fractions containing protein of interest were pooled and concentrated to 10 mL using ultrafiltration cell with a 10,000 molecular weight cut-off (MWCO) Millipore membrane (Sigma-Aldrich, St. Louis, Mo.) under nitrogen gas (60 psi). Protein was further purified by size exclusion chromatography (SEC) using a […] (320 mL) (Amersham Pharmacia, Uppsala, Sweden). SEC was equilibrated with 450 mL sizing buffer containing 25 mM HEPES pH 7.0, 50 mM NaCl, and 5 mM dithiothreitol. Concentrated protein was then loaded over SEC and elution with 400 mL sizing buffer was performed overnight at 0.5 mL/minute. The elution fractions were 5 mL each. The fractions were analyzed by SDS-PAGE and protein containing fractions were pooled. Concentration was measured using Bradford Assay/BSA Standard. Purified protein was stored in small aliquots at −80° C.
Assay 2: Evaluating Activator Potency in a Matrix Assay at Multiple Glucose Concentrations
Utilizing an adaptation of this method, representative compounds of the current invention were evaluated at 22 different concentrations and 16 different glucose concentrations in a coupled enzyme assay system that detects glucokinase activity via depletion of β-NADH.
For the compound `CCS(=O)(=O)N(C)c1cnc(Oc2cc(C(=O)Nc3ccc(C)cn3)cc3nn(C)cc23)cn1` [Example 1AY, 4-({5-[(ethylsulfonyl)(methyl)amino]pyrazin-2-yl}oxy)-2-methyl-N-(5-methylpyridin-2-yl)-2H-indazole-6-carboxamide], the EC50 came out at 673 nM.
In the case of `CCn1cc2c(Oc3cnc(C(=O)N(C)C)c(F)c3)cc(C(=O)Nc3cnccn3)cc2n1` [Example 1BB, 4-(6-(dimethylcarbamoyl)-5-fluoropyridin-3-yloxy)-2-ethyl-N-(pyrazin-2-yl)-2H-indazole-6-carboxamide], the EC50 was 195 nM.
Still for that read-out and setting: the value for `Cc1cnc(NC(=O)c2cc(Oc3cnc(C(=O)N4CCC4)c(F)c3)c3cn(C)nc3c2)cn1` [Example 1BC, 4-(6-(azetidine-1-carbonyl)-5-fluoropyridin-3-yloxy)-2-methyl-N-(5-methylpyrazin-2-yl)-2H-indazole-6-carboxamide] was 368 nM; that for `CCn1cc2c(Oc3cnc(C(=O)N(C)C)nc3)cc(C(=O)Nc3ccc(C)cn3)cc2n1` [Example 1BD, 4-(2-(dimethylcarbamoyl)pyrimidin-5-yloxy)-2-ethyl-N-(5-methylpyridin-2-yl)-2H-indazole-6-carboxamide] was 383 nM; that for `COc1cnc(NC(=O)c2cc(Oc3cnc(C(=O)N(C)C)c(F)c3)c3cn(C)nc3c2)cn1` [Example 1BE, 4-(6-(dimethylcarbamoyl)-5-fluoropyridin-3-yloxy)-N-(5-methoxypyrazin-2-yl)-2-methyl-2H-indazole-6-carboxamide] was 456 nM.
Still for that read-out and setting: the figure for `CCOc1cnc(NC(=O)c2cc(Oc3ccc(S(C)(=O)=O)cc3)c3cn(CC)nc3c2)cn1` [Example 1BG, N-(5-ethoxypyrazin-2-yl)-2-ethyl-4-[4-(methylsulfonyl)phenoxy]-2H-indazole-6-carboxamide] is 203 nM; for `CCc1cnc(NC(=O)c2cc(Oc3ccc(S(C)(=O)=O)cc3)c3cn(CC)nc3c2)cn1` [Example 1BH, 2-ethyl-N-(5-ethylpyrazin-2-yl)-4-[4-(methylsulfonyl)phenoxy]-2H-indazole-6-carboxamide] it is 536 nM.
As to `CCOc1cnc(NC(=O)c2cc(Oc3ccc(S(N)(=O)=O)cc3)c3cn(CC)nc3c2)cn1` [Example 1BI, 4-[4-(aminosulfonyl)phenoxy]-N-(5-ethoxypyrazin-2-yl)-2-ethyl-2H-indazole-6-carboxamide], the EC50 amounted to 49900 nM.
As to `CN(C)S(=O)(=O)c1ccc(Oc2cc(C(=O)Nc3ccn(C)n3)cc3nn(C)cc23)cc1` [Example 1BK, 4-{4-[(dimethylamino)sulfonyl]phenoxy}-2-methyl-N-(1-methyl-1H-pyrazol-3-yl)-2H-indazole-6-carboxamide], the EC50 stood at 1010 nM.
Regarding `CNS(=O)(=O)c1ccc(Oc2cc(C(=O)Nc3ccn(C)n3)cc3nn(C)cc23)cc1` [Example 1BL, 2-methyl-4-{4-[(methylamino)sulfonyl]phenoxy}-N-(1-methyl-1H-pyrazol-3-yl)-2H-indazole-6-carboxamide], the EC50 turned out to be 1800 nM.
On the same count and under the same terms, the value for `CCn1ccc(NC(=O)c2cc(Oc3ccc(S(C)(=O)=O)cc3)c3cn(CC)nc3c2)n1` [Example 1BM, 2-ethyl-N-(1-ethyl-1H-pyrazol-3-yl)-4-[4-(methylsulfonyl)phenoxy]-2H-indazole-6-carboxamide] was 1900 nM; that for `CNS(=O)(=O)c1ccc(Oc2cc(C(=O)Nc3cnc(OC)cn3)cc3nn(C)cc23)cc1` [Example 1BN, N-(5-methoxypyrazin-2-yl)-2-methyl-4-{4-[(methylamino)sulfonyl]phenoxy}-2H-indazole-6-carboxamide] was 684 nM; that for `Cn1ccc(NC(=O)c2cc(Oc3cnc(C(=O)N4CCCC4)cn3)c3cn(C)nc3c2)n1` [Example 1BO, 2-methyl-N-(1-methyl-1H-pyrazol-3-yl)-4-(5-(pyrrolidine-1-carbonyl)pyrazin-2-yloxy)-2H-indazole-6-carboxamide] was 250 nM.
Still for that read-out and setting: the figure for `CCn1cc2c(Oc3cnc(C(=O)N4CCCC4)cn3)cc(C(=O)Nc3cnc(C)cn3)cc2n1` [Example 1BP, 2-ethyl-N-(5-methylpyrazin-2-yl)-4-(5-(pyrrolidine-1-carbonyl)pyrazin-2-yloxy)-2H-indazole-6-carboxamide] is 290 nM; for `CCn1cc2c(Oc3cnc(C(=O)N4CCC4)cn3)cc(C(=O)Nc3ccn(C)n3)cc2n1` [Example 1BQ, 4-(5-(azetidine-1-carbonyl)pyrazin-2-yloxy)-2-ethyl-N-(1-methyl-1H-pyrazol-3-yl)-2H-indazole-6-carboxamide] it is 699 nM.
`CCn1cc2c(Oc3cnc(C(=O)N4CCC4)cn3)cc(C(=O)Nc3cnc(C)cn3)cc2n1` [Example 1BR, 4-(5-(azetidine-1-carbonyl)pyrazin-2-yloxy)-2-ethyl-N-(5-methylpyrazin-2-yl)-2H-indazole-6-carboxamide]: the EC50 was 790 nM.
Still for that read-out and setting: the figure for `Cn1ccc(NC(=O)c2cc(Oc3cnc(C(=O)N4CCC4)cn3)c3cn(C)nc3c2)n1` [Example 1BS, 4-(5-(azetidine-1-carbonyl)pyrazin-2-yloxy)-2-methyl-N-(1-methyl-1H-pyrazol-3-yl)-2H-indazole-6-carboxamide] is 798 nM; for `CC(C)n1cc2c(Oc3cnc(C(=O)N4CCC4)cn3)cc(C(=O)Nc3ccn(C)n3)cc2n1` [Example 1BT, 4-(5-(azetidine-1-carbonyl)pyrazin-2-yloxy)-2-isopropyl-N-(1-methyl-1H-pyrazol-3-yl)-2H-indazole-6-carboxamide] it is 979 nM.
Take `CCn1cc2c(Oc3cnc(C(=O)N(C)C)cn3)cc(C(=O)Nc3ccn(C)n3)cc2n1` [Example 1BU, 4-(5-(dimethylcarbamoyl)pyrazin-2-yloxy)-2-ethyl-N-(1-methyl-1H-pyrazol-3-yl)-2H-indazole-6-carboxamide]: the EC50 worked out at 1050 nM.

The assay is the same for the next values; noted with them: Glucokinase EC50, Assay 2 matrix assay; 16 glucose concentrations; intrinsic EC50 = concentration affording a 50% reduction in the enzyme's Km (for glucose).
Take `CCn1cc2c(Oc3cnc(C(=O)N4CCC4)c(F)c3)cc(C(=O)Nc3cnc(C)cn3)cc2n1` [Example 1AZ, 4-(6-(azetidine-1-carbonyl)-5-fluoropyridin-3-yloxy)-2-ethyl-N-(5-methylpyrazin-2-yl)-2H-indazole-6-carboxamide]: the concentration giving a half-maximal response (EC50) was 108 nM.
For the compound `CCn1cc2c(Oc3cnc(C(=O)N4CCC4)c(F)c3)cc(C(=O)Nc3ccn(C)n3)cc2n1` [Example 1BA, 4-(6-(azetidine-1-carbonyl)-5-fluoropyridin-3-yloxy)-2-ethyl-N-(1-methyl-1H-pyrazol-3-yl)-2H-indazole-6-carboxamide], the EC50 is 191 nM.
